How the values were obtained:
[1] = biological target: T1, Cbl-b (Homo sapiens, UniProt Q13191); assay: Cbl-b probe displacement HTRF binding assay; details: 0.4 nM biotinylated Cbl-b, 150 nM BODIPY probe
T1 construct: biotin (biotinylated)
Outline: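 Biotinylated Cbl-b (0.4 nM) preincubated 60 min at RT with compound (20-point 1:2 series, 10 μM top), then 150 nM BODIPY probe for 15 min, then streptavidin-terbium detection. Buffer: 20 mM Hepes, 150 mM NaCl, 0.01% Triton X-100, 0.5 mM TCEP, 0.01% BSA. Loss of HTRF signal gave IC50 via four-parameter fit.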

[2] = test system: Jurkat cells; assay: IL-2 secretion assay in CD3/CD28-activated Jurkat cells (AlphaLISA); format: cell-based, human; details: Homo sapiens, CD3/CD28 T Cell Activator, 24 h, IL-2 AlphaLISA
Outline: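 Jurkat cells (50,000/well) preincubated 1 h at 37° C with compound (16-point 1:2 series, final 10 μM to 300 pM) in Opti-MEM, then stimulated with CD3/CD28 activator for 24 h. Supernatant IL-2 read by AlphaLISA; EC50 from 4-parameter logistic fit.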

T1 sequence (Q13191 whole entry, species assumed): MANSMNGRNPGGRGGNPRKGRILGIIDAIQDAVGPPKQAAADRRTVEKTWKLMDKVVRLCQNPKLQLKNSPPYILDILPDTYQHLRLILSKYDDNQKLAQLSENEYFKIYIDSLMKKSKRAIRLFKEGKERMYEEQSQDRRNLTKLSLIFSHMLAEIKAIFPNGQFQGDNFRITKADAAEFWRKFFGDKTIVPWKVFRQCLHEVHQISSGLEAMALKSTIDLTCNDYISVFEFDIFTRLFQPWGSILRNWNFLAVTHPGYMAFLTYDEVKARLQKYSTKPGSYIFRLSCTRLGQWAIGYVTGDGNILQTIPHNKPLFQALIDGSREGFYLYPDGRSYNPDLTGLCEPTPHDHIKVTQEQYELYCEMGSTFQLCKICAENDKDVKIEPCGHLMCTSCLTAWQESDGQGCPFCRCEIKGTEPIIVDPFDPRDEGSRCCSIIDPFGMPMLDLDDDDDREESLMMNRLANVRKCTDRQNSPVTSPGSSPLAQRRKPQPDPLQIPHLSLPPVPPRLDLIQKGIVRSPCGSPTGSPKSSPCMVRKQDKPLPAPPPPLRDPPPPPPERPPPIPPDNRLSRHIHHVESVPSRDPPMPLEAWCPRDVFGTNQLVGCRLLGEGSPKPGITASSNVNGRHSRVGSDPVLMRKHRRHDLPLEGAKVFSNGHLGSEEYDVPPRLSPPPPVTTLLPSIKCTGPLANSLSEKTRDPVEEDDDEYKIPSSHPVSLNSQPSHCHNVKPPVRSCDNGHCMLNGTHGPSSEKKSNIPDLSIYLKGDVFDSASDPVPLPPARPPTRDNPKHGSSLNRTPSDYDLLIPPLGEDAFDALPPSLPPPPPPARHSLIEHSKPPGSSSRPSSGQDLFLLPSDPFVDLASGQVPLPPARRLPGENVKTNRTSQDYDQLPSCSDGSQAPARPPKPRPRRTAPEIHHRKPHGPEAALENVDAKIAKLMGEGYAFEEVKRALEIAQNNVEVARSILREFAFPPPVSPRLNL

Compound	IC50 [1]	EC50 [2]
Cn1cnnc1-c1cc(F)ccc1-c1cc(C2CC2)nc(-n2cc(C(F)(F)F)c3nc(C4CC4)[nH]c3c2=O)c1 [Example 39, 2-cyclopropyl-5-[6-cyclopropyl-4-[4-fluoro-2-(4-methyl-1,2,4-triazol-3-yl)phenyl]pyridin-2-yl]-7-(trifluoromethyl)-3H-imidazo[4,5-c]pyridin-4-one]	< 100 nM	< 100 nM
C[C@H]1CCCN(Cc2cc3c(S(C)(=O)=O)cn(-c4cc(-c5ccc(C#N)cc5-c5nccn5C)cc(C5CC5)n4)c(=O)c3[nH]2)C1 [Example 99, 4-[2-(2-{[(S)-3-methyl-1-piperidyl]methyl}-4-mesyl-7-oxo-1,6-dihydro-1,6-diaza-6-indenyl)-6-cyclopropyl-4-pyridyl]-3-(1-methyl-2-imidazolyl)benzonitrile]	< 100 nM	< 100 nM
Cn1cnnc1-c1cc(F)ccc1-c1cc(C2CC2)nc(-n2cc(C#N)c3cc(C(N)c4cccnc4)[nH]c3c2=O)c1 (centres unmarked) [Example 94, 2-[Amino(3-pyridyl)methyl]-6-{6-cyclopropyl-4-[4-fluoro-2-(4-methyl-4H-1,2,4-triazol-3-yl)phenyl]-2-pyridyl}-7-oxo-1,6-dihydro-1,6-diaza-4-indenecarbonitrile]	< 100 nM	100 to 1000 nM
Cn1cnnc1-c1cc(F)ccc1-c1cc(C2CC2)nc(-n2cc(C#N)c3cc(C(O)C4CCCC4)[nH]c3c2=O)c1 (centres unmarked) [Example 91, 2-(cyclopentylhydroxymethyl)-6-{6-cyclopropyl-4-[4-fluoro-2-(4-methyl-4H-1,2,4-triazol-3-yl)phenyl]-2-pyridyl}-7-oxo-1,6-dihydro-1,6-diaza-4-indenecarbonitrile]	< 100 nM	< 100 nM
Cn1cnnc1-c1cc(F)ccc1-c1cc(C2CC2)nc(-n2cnc3cc(C4CCOC4)[nH]c3c2=O)c1 (centres unmarked) [Example 125, 3-[6-cyclopropyl-4-[4-fluoro-2-(4-methyl-1,2,4-triazol-3-yl)phenyl]-pyridin-2-yl]-6-(oxolan-3-yl)-5H-pyrrolo[3,2-d]pyrimidin-4-one]	< 100 nM	100 to 1000 nM
Cc1ccnnc1-c1cc(C#N)ccc1-c1cc(C2CC2)nc(-n2cc(C3CC3)c3cc(CNC4(C)CCC4)[nH]c3c2=O)c1 [Example 75, 4-[2-Cyclopropyl-6-[4-cyclopropyl-2-[[(1-methylcyclobutyl)amino]methyl]-7-oxo-1H-pyrrolo[2,3-c]pyridin-6-yl]pyridin-4-yl]-3-(4-methylpyridazin-3-yl)benzonitrile]	< 100 nM	< 100 nM
Cn1cc(C#N)nc1-c1cc(F)ccc1-c1cc(C2CC2)nc(-n2cnc3cc(CNCCC(F)(F)F)[nH]c3c2=O)c1 [Example 112, 2-[2-[2-cyclopropyl-6-[4-oxo-6-[(3,3,3-trifluoropropylamino)methyl]-5H-pyrrolo[3,2-d]pyrimidin-3-yl]pyridin-4-yl]-5-fluorophenyl]-1-methylimidazole-4-carbonitrile]	< 100 nM	< 100 nM
N#Cc1c[nH]c2c(=O)n(-c3cc(-c4ccc(F)cc4-c4nncn4C(F)F)cc(C4CC4)n3)cc(C(F)(F)F)c12 [Example 134, 6-[6-cyclopropyl-4-[2-[4-(difluoromethyl)-1,2,4-triazol-3-yl]-4-fluorophenyl]pyridin-2-yl]-7-oxo-4-(trifluoromethyl)-1H-pyrrolo[2,3-c]pyridine-3-carbonitrile]	< 100 nM	< 100 nM
CC(=O)N1CCC[C@H]1c1nc2c(C(F)(F)F)cn(-c3cc(-c4ccc(F)cc4-c4nncn4C)cc(C4CC4)n3)c(=O)c2[nH]1 [Example 45, 2-[(2S)-1-acetylpyrrolidin-2-yl]-5-[6-cyclopropyl-4-[4-fluoro-2-(4-methyl-1,2,4-triazol-3-yl)phenyl]pyridin-2-yl]-7-(trifluoromethyl)-3H-imidazo[4,5-c]pyridin-4-one]	< 100 nM	100 to 1000 nM
COCCNCc1cc2c(C(F)(F)F)cn(-c3cc(-c4ccc(F)cc4-n4nccc4C(F)(F)F)cc(C4CC4)n3)c(=O)c2[nH]1 [Example 142, 6-[6-cyclopropyl-4-[4-fluoro-2-[5-(trifluoromethyl)pyrazol-1-yl]phenyl]pyridin-2-yl]-2-[(2-methoxyethylamino)methyl]-4-(trifluoromethyl)-1H-pyrrolo[2,3-c]pyridin-7-one]	< 100 nM	100 to 1000 nM
COCCNCc1cc2ncn(-c3cc(-c4ccc(F)cc4-c4ncnn4C)cc(C4CC4)n3)c(=O)c2[nH]1 [Example 118, 3-[6-cyclopropyl-4-[4-fluoro-2-(2-methyl-1,2,4-triazol-3-yl)phenyl]-pyridin-2-yl]-6-[(2-methoxyethylamino)methyl]-5H-pyrrolo[3,2-d]pyrimidin-4-one]	< 100 nM	100 to 1000 nM
CC1(NCc2cc3c(C4CC4)cn(-c4cc(-c5ccc(C#N)cc5-c5ncccc5C(F)(F)F)cc(C5CC5)n4)c(=O)c3[nH]2)CCC1 [Example 73, 4-(6-cyclopropyl-2-{4-cyclopropyl-2-[(1-methylcyclobutylamino)methyl]-7-oxo-1,6-dihydro-1,6-diaza-6-indenyl}-4-pyridyl)-3-[3-(trifluoromethyl)-2-pyridyl]benzonitrile]	< 100 nM	100 to 1000 nM

More lines, now with the values ahead:

IC50 [1]	EC50 [2]	Compound
< 100 nM	< 100 nM	Cn1ccnc1-c1cc(F)ccc1-c1cc(C2CC2)nc(-n2cc(C3CC3)c3cc(CN[C@H]4CCOC4)[nH]c3c2=O)c1 [Example 59, 2-{[(S)-tetrahydro-3-furylamino]methyl}-4-cyclopropyl-6-{6-cyclopropyl-4-[4-fluoro-2-(1-methyl-2-imidazolyl)phenyl]-2-pyridyl}-1,6-dihydro-1,6-diaza-7-indenone]
< 100 nM	< 100 nM	Cn1ccnc1-c1cc(F)ccc1-c1cc(C2CC2)nc(-n2cc(C#N)c3cc(CNCCCF)[nH]c3c2=O)c1 [Example 86, 6-{6-cyclopropyl-4-[4-fluoro-2-(1-methyl-2-imidazolyl)phenyl]-2-pyridyl}-2-[(3-fluoropropylamino)methyl]-7-oxo-1,6-dihydro-1,6-diaza-4-indenecarbonitrile]
100 to 1000 nM	1000 to 5000 nM	C[C@H]1CCCN(Cc2cc3c(C4CC4)cn(-c4cc(-c5ccc(F)cc5-c5cncn5C)cc(C5CC5)n4)c(=O)c3[nH]2)C1 [Example 24, 2-{[(S)-3-Methyl-1-piperidyl]methyl}-4-cyclopropyl-6-{6-cyclopropyl-4-[4-fluoro-2-(1-methyl-5-imidazolyl)phenyl]-2-pyridyl}-1,6-dihydro-1,6-diaza-7-indenone]
< 100 nM	< 100 nM	C[C@H]1CCCN(Cc2cc3c(C4CC4)cn(-c4cc(-c5ccc(F)cc5-c5nccn5C)cc(C5CC5)n4)c(=O)c3[nH]2)C1 [Example 52, 2-{[(S)-3-methyl-1-piperidyl]methyl}-4-cyclopropyl-6-{6-cyclopropyl-4-[4-fluoro-2-(1-methyl-2-imidazolyl)phenyl]-2-pyridyl}-1,6-dihydro-1,6-diaza-7-indenone]
100 to 1000 nM	1000 to 5000 nM	CNCCN(C)c1cc(-c2ccc(C#N)cc2-c2nncn2C)cc(-n2cc(C3CC3)c3cc(CN4CCC[C@H](C)C4)[nH]c3c2=O)n1 [Example 3, 4-(2-{N-methyl[2-(methylamino)ethyl]amino}-6-(2-{[(S)-3-methyl-1-piperidyl]methyl}-4-cyclopropyl-7-oxo-1,6-dihydro-1,6-diaza-6-indenyl)-4-pyridyl)-3-(4-methyl-4H-1,2,4-triazol-3-yl)benzonitrile]
< 100 nM	< 100 nM	Cn1cnnc1-c1cc(C#N)ccc1-c1cc(C2CC2)nc(-n2cc(C3CC3)c3cc(CNC4(C)CCC4)[nH]c3c2=O)c1 [Example 37, 4-(6-cyclopropyl-2-{4-cyclopropyl-2-[(1-methylcyclobutylamino)methyl]-7-oxo-1,6-dihydro-1,6-diaza-6-indenyl}-4-pyridyl)-3-(4-methyl-4H-1,2,4-triazol-3-yl)benzonitrile]
< 100 nM	< 100 nM	COc1ccc(-c2cc(C3CC3)nc(-n3cc(C4CC4)c4cc(CN5CCC[C@H](C)C5)[nH]c4c3=O)c2)c(-c2nncn2C)c1 [Example 5, 2-{[(S)-3-Methyl-1-piperidyl]methyl}-4-cyclopropyl-6-{6-cyclopropyl-4-[4-methoxy-2-(4-methyl-4H-1,2,4-triazol-3-yl)phenyl]-2-pyridyl}-1,6-dihydro-1,6-diaza-7-indenone]
< 100 nM	< 100 nM	COc1cc(-c2ccc(F)cc2-c2nccn2C)cc(-n2cc(C3CC3)c3cc(CN4CCC[C@H](C)C4)[nH]c3c2=O)n1 [Example 82, 4-Cyclopropyl-6-[4-[4-fluoro-2-(1-methylimidazol-2-yl)phenyl]-6-methoxypyridin-2-yl]-2-[[(3S)-3-methylpiperidin-1-yl]methyl]-1H-pyrrolo[2,3-c]pyridin-7-one]
< 100 nM	< 100 nM	CCNc1cc(-c2ccc(F)cc2-c2nncn2C)cc(-n2cc(C3CC3)c3cc(CN4CCC[C@H](C)C4)[nH]c3c2=O)n1 [Example 11, 2-{[(S)-3-methyl-1-piperidyl]methyl}-4-cyclopropyl-6-{6-(ethylamino)-4-[4-fluoro-2-(4-methyl-4H-1,2,4-triazol-3-yl)phenyl]-2-pyridyl}-1,6-dihydro-1,6-diaza-7-indenone]
< 100 nM	< 100 nM	C[C@H]1CCCN(Cc2cc3c(C4CC4)cn(-c4cc(-c5ccc(C#N)cc5-c5nncn5C)cc(C5CC5)n4)c(=O)c3[nH]2)C1 [Example 2, 4-[2-(2-{[(S)-3-methyl-1-piperidyl]methyl}-4-cyclopropyl-7-oxo-1,6-dihydro-1,6-diaza-6-indenyl)-6-cyclopropyl-4-pyridyl]-3-(4-methyl-4H-1,2,4-triazol-3-yl)benzonitrile]

— patent US20250011318A1 (ARCUS BIOSCIENCES, INC., priority 2023, published 2025)
